Data as given in PubChem BioAssay (NCI).
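Assay format: 96-well plates, 48-hour exposure. Here, GI50 denotes the concentration required for 50% inhibition of growth. TGI: total growth inhibition.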

Experiments:
Experiment in all cases: DTP human tumour cell line panel, 48 h; in the data active means GI50 below about 0.43 µM; inactive means the rest
786-0 renal = tested on: 786-0 renal
A498 renal = tested on: A498 renal
A549 NSCLC = tested on: A549 NSCLC
BT-549 breast = tested on: BT-549 breast
CAKI-1 renal = tested on: CAKI-1 renal
CCRF-CEM leukemia = tested on: CCRF-CEM leukemia
COLO 205 colon = tested on: COLO 205 colon
DU-145 prostate = tested on: DU-145 prostate
EKVX NSCLC = tested on: EKVX NSCLC
HCC-2998 colon = tested on: HCC-2998 colon
HCT-15 colon = tested on: HCT-15 colon
HL-60(TB) leukemia = tested on: HL-60(TB) leukemia
HOP-62 NSCLC = tested on: HOP-62 NSCLC
HOP-92 NSCLC = tested on: HOP-92 NSCLC
HS 578T breast = tested on: HS 578T breast
HT29 colon = tested on: HT29 colon
IGROV1 ovarian = tested on: IGROV1 ovarian
K-562 leukemia = tested on: K-562 leukemia
KM12 colon = tested on: KM12 colon
LOX IMVI melanoma = tested on: LOX IMVI melanoma
M14 melanoma = tested on: M14 melanoma
MALME-3M melanoma = tested on: MALME-3M melanoma
MCF7 breast = tested on: MCF7 breast
MDA-MB-231 breast = tested on: MDA-MB-231 breast
MDA-MB-435 = tested on: MDA-MB-435
MDA-MB-468 breast = tested on: MDA-MB-468 breast
MOLT-4 leukemia = tested on: MOLT-4 leukemia
NCI-H226 lung = tested on: NCI-H226 lung
NCI-H23 lung = tested on: NCI-H23 lung
NCI-H460 lung = tested on: NCI-H460 lung
NCI-H522 lung = tested on: NCI-H522 lung
NCI/ADR-RES ovarian = tested on: NCI/ADR-RES ovarian
OVCAR-3 ovarian = tested on: OVCAR-3 ovarian
OVCAR-4 ovarian = tested on: OVCAR-4 ovarian
OVCAR-5 ovarian = tested on: OVCAR-5 ovarian
OVCAR-8 ovarian = tested on: OVCAR-8 ovarian
PC-3 prostate = tested on: PC-3 prostate
RPMI-8226 leukemia = tested on: RPMI-8226 leukemia
RXF 393 renal = tested on: RXF 393 renal
SF-268 CNS = tested on: SF-268 CNS
SF-295 CNS = tested on: SF-295 CNS
SF-539 CNS = tested on: SF-539 CNS
SK-MEL-2 melanoma = tested on: SK-MEL-2 melanoma
SK-MEL-28 melanoma = tested on: SK-MEL-28 melanoma
SK-MEL-5 melanoma = tested on: SK-MEL-5 melanoma
SK-OV-3 ovarian = tested on: SK-OV-3 ovarian
SN12C renal = tested on: SN12C renal
SNB-19 CNS = tested on: SNB-19 CNS
SNB-75 CNS = tested on: SNB-75 CNS
SW-620 colon = tested on: SW-620 colon
T-47D breast = tested on: T-47D breast
U251 CNS = tested on: U251 CNS
UACC-257 melanoma = tested on: UACC-257 melanoma
UACC-62 melanoma = tested on: UACC-62 melanoma

CCCSc1nc(Nc2ccc(S(N)(=O)=O)cc2)c(C#N)c(-c2ccc(Cl)cc2)n1
17.9 µM: TGI (MALME-3M melanoma)
3.55 µM: TGI (LOX IMVI melanoma)
4.94 µM: TGI (SF-295 CNS)
43 µM: TGI (NCI-H23 lung)
29.6 µM: TGI (SW-620 colon)
3.73 µM: TGI (HOP-92 NSCLC)
7.81 µM: TGI (U251 CNS)
7.5 µM: TGI (SN12C renal)
4.63 µM: TGI (RXF 393 renal)
37.1 µM: TGI (MDA-MB-468 breast)
8.09 µM: TGI (HS 578T breast)
16.1 µM: TGI (OVCAR-8 ovarian)
22.4 µM: TGI (NCI-H460 lung)
5.65 µM: TGI (OVCAR-4 ovarian)
9.63 µM: TGI (SNB-75 CNS)
8.9 µM: TGI (MDA-MB-231 breast)
8.66 µM: TGI (NCI-H226 lung)
4.06 µM: TGI (786-0 renal)
inactive: GI50 (786-0 renal) 1980 nM | GI50 (A498 renal) 1780 nM | GI50 (A549 NSCLC) 3.62 µM | GI50 (BT-549 breast) 30.8 µM | GI50 (CAKI-1 renal) 1940 nM | GI50 (CCRF-CEM leukemia) > 100 µM | GI50 (COLO 205 colon) 9.54 µM | GI50 (DU-145 prostate) 12.2 µM | GI50 (EKVX NSCLC) 9.38 µM | GI50 (HCC-2998 colon) 4.2 µM | GI50 (HCT-15 colon) 2920 nM | GI50 (HL-60(TB) leukemia) > 100 µM | GI50 (HOP-62 NSCLC) 2350 nM | GI50 (HOP-92 NSCLC) 1390 nM | GI50 (HS 578T breast) 2590 nM | GI50 (HT29 colon) 6.41 µM | GI50 (IGROV1 ovarian) 6.03 µM | GI50 (K-562 leukemia) 2850 nM | GI50 (KM12 colon) 4.17 µM | GI50 (LOX IMVI melanoma) 1820 nM | GI50 (M14 melanoma) 3.48 µM | GI50 (MALME-3M melanoma) 3.07 µM | GI50 (MCF7 breast) 24.3 µM | GI50 (MDA-MB-231 breast) 2830 nM | GI50 (MDA-MB-435) 7.9 µM | GI50 (MDA-MB-468 breast) 4.49 µM | GI50 (MOLT-4 leukemia) 8.11 µM | GI50 (NCI-H226 lung) 2600 nM | GI50 (NCI-H23 lung) 9.53 µM | GI50 (NCI-H460 lung) 3.85 µM | GI50 (NCI-H522 lung) 16.4 µM | GI50 (NCI/ADR-RES ovarian) 4.89 µM | GI50 (OVCAR-3 ovarian) 3.63 µM | GI50 (OVCAR-4 ovarian) 2230 nM | GI50 (OVCAR-5 ovarian) 8.78 µM | GI50 (OVCAR-8 ovarian) 3.42 µM | GI50 (PC-3 prostate) 13.4 µM | GI50 (RPMI-8226 leukemia) 3.14 µM | GI50 (RXF 393 renal) 2000 nM | GI50 (SF-268 CNS) 9 µM | GI50 (SF-295 CNS) 2100 nM | GI50 (SF-539 CNS) 2570 nM | GI50 (SK-MEL-2 melanoma) 13.8 µM | GI50 (SK-MEL-28 melanoma) 36.1 µM | GI50 (SK-MEL-5 melanoma) 6.96 µM | GI50 (SK-OV-3 ovarian) 4.11 µM | GI50 (SN12C renal) 2390 nM | GI50 (SNB-19 CNS) 4.04 µM | GI50 (SNB-75 CNS) 2030 nM | GI50 (SW-620 colon) 4.67 µM | GI50 (T-47D breast) > 100 µM | GI50 (U251 CNS) 2420 nM | GI50 (UACC-257 melanoma) 28.5 µM | GI50 (UACC-62 melanoma) 5.11 µM
5.67 µM: TGI (HOP-62 NSCLC)
4.31 µM: TGI (A498 renal)
10 µM: TGI (SF-539 CNS)
97.1 µM: TGI (DU-145 prostate)
20.9 µM: TGI (SNB-19 CNS)
19.6 µM: TGI (OVCAR-3 ovarian)
4.8 µM: TGI (CAKI-1 renal)
90.5 µM: TGI (NCI/ADR-RES ovarian)
25.3 µM: TGI (M14 melanoma)
> 100 µM: TGI (A549 NSCLC) | TGI (BT-549 breast) | TGI (CCRF-CEM leukemia) | TGI (COLO 205 colon) | TGI (EKVX NSCLC) | TGI (HCC-2998 colon) | TGI (HCT-15 colon) | TGI (HL-60(TB) leukemia) | TGI (HT29 colon) | TGI (IGROV1 ovarian) | TGI (K-562 leukemia) | TGI (KM12 colon) | TGI (MCF7 breast) | TGI (MDA-MB-435) | TGI (MOLT-4 leukemia) | TGI (NCI-H522 lung) | TGI (OVCAR-5 ovarian) | TGI (PC-3 prostate) | TGI (RPMI-8226 leukemia) | TGI (SF-268 CNS) | TGI (SK-MEL-2 melanoma) | TGI (SK-MEL-28 melanoma) | TGI (SK-MEL-5 melanoma) | TGI (T-47D breast) | TGI (UACC-257 melanoma) | TGI (UACC-62 melanoma)
67.6 µM: TGI (SK-OV-3 ovarian)
